Laboratory results reported in ChEMBL document CHEMBL1154224, “Spiropiperidine CCR5 antagonists” (Bioorg Med Chem Lett, 2009).

How the values were obtained:
[1] = system: Human immunodeficiency virus 1; assay: Antiviral activity against recombinant HIV1 virus infected in human JC53BL cells after 3 days; format: functional, organism-based; conditions: Human immunodeficiency virus 1, JC53BL, 72 h
[2] = biological target: C-C chemokine receptor type 5 (Homo sapiens, UniProt P51681); assay: Displacement of [125I]RANTES from human CCR5 receptor co-transfected with Galphai6 in CHO cells; format: cell-based
Sequence of C-C chemokine receptor type 5 (P51681 whole entry): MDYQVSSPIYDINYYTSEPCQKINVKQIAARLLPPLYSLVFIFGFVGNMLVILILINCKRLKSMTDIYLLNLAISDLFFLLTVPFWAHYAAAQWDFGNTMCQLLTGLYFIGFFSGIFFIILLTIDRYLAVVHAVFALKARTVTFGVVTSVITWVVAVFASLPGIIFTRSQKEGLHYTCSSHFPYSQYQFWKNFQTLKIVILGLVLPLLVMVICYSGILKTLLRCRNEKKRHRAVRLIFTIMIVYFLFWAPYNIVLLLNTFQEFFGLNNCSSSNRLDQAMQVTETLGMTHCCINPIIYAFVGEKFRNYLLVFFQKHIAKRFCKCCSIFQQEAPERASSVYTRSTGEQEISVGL

[3] = (§1) Intrinsic clearance in human liver microsomes assessed per mg of protein; format: ADME, Microsome; conditions: liver microsomes
[4] = (§2) Intrinsic clearance in rat liver microsomes assessed per mg of protein; format: ADME, Microsome; conditions: liver microsomes
[5] = Oral bioavailability in rat at 10 mg/kg; format: ADME, organism-based; conditions: in vivo
Homo sapiens = organism: Homo sapiens; assay: Hepatic blood flow in human; format: ADME, organism-based, Liver
Liver microsomes [6] = assay: as §2; format: ADME, Microsome; conditions: microsomes
Liver microsomes [7] = assay: as §1; format: ADME, Microsome; conditions: microsomes
[8] = Efflux ratio of permeability from basolateral to apical to apical to basolateral side in human 21 days cultured Caco-2 cells; format: ADME, cell-based
[9] = Permeability from apical to basolateral side of the human 21 days cultured Caco-2 cells; format: ADME, cell-based; conditions: read-out: permeability

Row | SMILES | IC50 [1] [nM] | IC50 [2] [nM] | microsomal CLint [3] [µL/min/mg] | further results
1 | CCCC[C@H]1CN(CC2CCC(F)(F)CC2)C(=O)OC12CCN(C1(C)CCN(C(=O)c3c(C)ncnc3C)CC1)CC2 | 2 | 27 | 106 | –
2 | CCCCC1N(CC2CCCCC2)C(=O)OC12CCN(C1CCN(C(=O)c3c(C)cccc3C)CC1)CC2 (centres undefined) | 125 | 51 | 675 | microsomal CLint [4]: 2000 µL/min/mg
3 | CCCC1N(CC2CCCCC2)C(=O)OC12CCN(C1CCN(C(=O)c3c(C)cccc3C)CC1)CC2 (centres undefined) | > 625 | 300 | – | –
4 | CCCCC1CN(CC2CCCCC2)C(=O)OC12CCN(C1CCN(C(=O)c3c(C)ncnc3C)CC1)CC2 (centres undefined) | 31 | 68 | – | bioavailability [5]: 43%; LBF (Homo sapiens): 82%; clearance (Liver microsomes [6]): 80 µL/min/mg; clearance (Liver microsomes [7]): 119 µL/min/mg
5 | CCCCC1CN(CC2CCOCC2)C(=O)OC12CCN(C1(C)CCN(C(=O)c3c(C)ncnc3C)CC1)CC2 (centres undefined) | 14 | 25 | 17 | –
6 | CCCC[C@H]1CN(CCC2CCOCC2)C(=O)OC12CCN(C1(C)CCN(C(=O)c3c(C)ncnc3C)CC1)CC2 | 8 | – | 37 | –
7 | CCCCC1N(CC2CCOCC2)C(=O)OC12CCN(C1(C)CCN(C(=O)c3c(C)ncnc3C)CC1)CC2 (centres undefined) | 375 | 58 | 27 | efflux ratio [8]: 31; Papp A→B [9]: 0.6 ×10⁻⁶ cm/s
8 | CCCC[C@H]1CN(CC2CCOCC2)C(=O)OC12CCN(C1(C)CCN(C(=O)c3c(C)ccnc3C)CC1)CC2 | 4 | 61 | 33 | –
9 | CCCC[C@H]1CN(CC2CCOCC2)C(=O)OC12CCN(C1(C)CCN(C(=O)c3c(C)cc[n+]([O-])c3C)CC1)CC2 | 52 | 80 | – | –
10 | CCCCC1N(CC2CCCCC2)C(=O)OC12CCN(C1(C)CCN(C(=O)c3c(C)cccc3C)CC1)CC2 (centres undefined) | < 1.2 | 10 | 526 | efflux ratio [8]: 0.4; microsomal CLint [4]: 523 µL/min/mg; Papp A→B [9]: 14 ×10⁻⁶ cm/s
11 | CCCC[C@H]1CN(CC2CCCCO2)C(=O)OC12CCN(C1(C)CCN(C(=O)c3c(C)ccnc3C)CC1)CC2 (some centres undefined) | 55 | 10 | 53 | –

Now from value to compound, other results behind:

Row | IC50 [1] [nM] | IC50 [2] [nM] | microsomal CLint [3] [µL/min/mg] | SMILES | further results
12 | 3 | 12 | 36 | CCCC[C@H]1CN(CC2CCOCC2)C(=O)OC12CCN(C1(C)CCN(C(=O)c3c(C)cc(=O)oc3C)CC1)CC2 | –
13 | 46 | 7 | 162 | CCCCC1N(CC2CCCCC2)C(=O)OC12CCN(C1(C)CCN(C(=O)c3c(C)ncnc3C)CC1)CC2 (centres undefined) | –
14 | 84 | – | – | CCCC[C@H]1CN(C2CCOCC2)C(=O)OC12CCN(C1(C)CCN(C(=O)c3c(C)ncnc3C)CC1)CC2 | –
15 | 24 | 89 | 164 | CCCCC1CN(CC2CCOCC2)C(=O)OC12CCN(C1CCN(C(=O)c3c(C)cccc3C)CC1)CC2 (centres undefined) | –
16 | > 625 | 100 | 17 | CCCC[C@@H]1CN(CC2CCOCC2)C(=O)OC12CCN(C1(C)CCN(C(=O)c3c(C)ncnc3C)CC1)CC2 | –
17 | > 625 | 144 | – | CCCCC1N(Cc2ccccc2)C(=O)OC12CCN(C1CCN(C(=O)c3c(C)cccc3C)CC1)CC2 (centres undefined) | –
18 | > 625 | 24 | – | CCCCC1N(CC2CCOCC2)C(=O)OC12CCN(C1CCN(C(=O)c3c(C)cccc3C)CC1)CC2 (centres undefined) | –
19 | 3 | 97 | 46 | CCCC[C@H]1CN(CC2CCOCC2)C(=O)OC12CCN(C1(C)CCN(C(=O)c3c(C)nc(C(F)(F)F)nc3C)CC1)CC2 | –
20 | 29 | 30 | 307 | CCCCC1CN(CC2CCCCC2)C(=O)OC12CCN(C1CCN(C(=O)c3c(C)cccc3C)CC1)CC2 (centres undefined) | –
21 | > 625 | 100 | – | CCCCC1N(CC2CCCCC2)C(=O)OC12CCN(C1CCN(C(=O)c3ccccc3C)CC1)CC2 (centres undefined) | –
22 | 12 | 22 | 28 | CCCC[C@H]1CN(C)C(=O)OC12CCN(C1(C)CCN(C(=O)c3c(C)cc(C#N)nc3C)CC1)CC2 | –
23 | 4 | 24 | 42 | CCCCC1CN(CC2CCOCC2)C(=O)OC12CCN(C1(C)CCN(C(=O)c3c(C)cc(C#N)nc3C)CC1)CC2 (racemic) | –
24 | > 625 | 18 | – | CCCCC1N(CC2CCCC2)C(=O)OC12CCN(C1CCN(C(=O)c3c(C)cccc3C)CC1)CC2 (centres undefined) | –
25 | 405 | 76 | – | CCCCC1CN(CC2CCOCC2)C(=O)OC12CCN(C1CCN(C(=O)c3c(C)ncnc3C)CC1)CC2 (centres undefined) | –
